Each structure is given as a SMILES string. Like-named read-outs stand apart in the source and are kept apart here.

Holding throughout (type): biochemical
The target of experiment [1] is 320 wild-type protein kinases (Homo sapiens, UniProt Q04759). Particulars: PKC-theta, singlicate. The text has this: (§1) Table S4. Profiling of two compounds at two concentrations against 320 wild-type protein kinases; singlicate measurement; Residual activities (% of control).
The target in experiment [2] is 320 wild-type protein kinases (Homo sapiens, UniProt Q13554). Particulars: CAMK2B, singlicate.
Excerpt: as §1

For experiment [3], the target named is T1, 320 wild-type protein kinases (Homo sapiens, UniProt Q15139).
T1 sequence (Q15139 1-912): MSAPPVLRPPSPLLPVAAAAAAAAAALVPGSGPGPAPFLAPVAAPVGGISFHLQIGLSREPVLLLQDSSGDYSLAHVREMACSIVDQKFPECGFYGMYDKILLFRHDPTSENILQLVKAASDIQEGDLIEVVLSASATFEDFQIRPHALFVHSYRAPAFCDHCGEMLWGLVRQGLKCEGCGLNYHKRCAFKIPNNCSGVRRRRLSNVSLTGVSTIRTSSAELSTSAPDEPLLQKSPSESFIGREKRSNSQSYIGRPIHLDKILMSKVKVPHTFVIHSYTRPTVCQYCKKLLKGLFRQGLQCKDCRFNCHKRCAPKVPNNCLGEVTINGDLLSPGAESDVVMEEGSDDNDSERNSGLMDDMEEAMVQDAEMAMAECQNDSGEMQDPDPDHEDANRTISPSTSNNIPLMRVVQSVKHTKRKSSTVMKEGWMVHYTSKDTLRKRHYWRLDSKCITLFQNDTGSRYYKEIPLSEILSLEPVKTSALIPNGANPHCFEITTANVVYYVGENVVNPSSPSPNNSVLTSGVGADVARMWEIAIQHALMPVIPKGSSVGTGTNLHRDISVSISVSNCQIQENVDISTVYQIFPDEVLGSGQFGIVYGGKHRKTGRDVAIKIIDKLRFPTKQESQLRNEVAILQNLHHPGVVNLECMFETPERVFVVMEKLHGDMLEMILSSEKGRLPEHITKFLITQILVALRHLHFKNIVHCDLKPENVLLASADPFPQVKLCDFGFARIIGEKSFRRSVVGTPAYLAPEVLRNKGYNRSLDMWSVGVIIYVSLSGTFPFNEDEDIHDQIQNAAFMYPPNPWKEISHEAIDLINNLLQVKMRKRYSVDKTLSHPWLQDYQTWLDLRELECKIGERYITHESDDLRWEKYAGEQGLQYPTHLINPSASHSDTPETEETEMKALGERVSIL
Particulars: PKC-mu, singlicate.
Excerpt: as §1

Experiment [4] deals with T2, 320 wild-type protein kinases (Homo sapiens, UniProt Q9NZJ5).
T2 sequence (Q9NZJ5 30-1116): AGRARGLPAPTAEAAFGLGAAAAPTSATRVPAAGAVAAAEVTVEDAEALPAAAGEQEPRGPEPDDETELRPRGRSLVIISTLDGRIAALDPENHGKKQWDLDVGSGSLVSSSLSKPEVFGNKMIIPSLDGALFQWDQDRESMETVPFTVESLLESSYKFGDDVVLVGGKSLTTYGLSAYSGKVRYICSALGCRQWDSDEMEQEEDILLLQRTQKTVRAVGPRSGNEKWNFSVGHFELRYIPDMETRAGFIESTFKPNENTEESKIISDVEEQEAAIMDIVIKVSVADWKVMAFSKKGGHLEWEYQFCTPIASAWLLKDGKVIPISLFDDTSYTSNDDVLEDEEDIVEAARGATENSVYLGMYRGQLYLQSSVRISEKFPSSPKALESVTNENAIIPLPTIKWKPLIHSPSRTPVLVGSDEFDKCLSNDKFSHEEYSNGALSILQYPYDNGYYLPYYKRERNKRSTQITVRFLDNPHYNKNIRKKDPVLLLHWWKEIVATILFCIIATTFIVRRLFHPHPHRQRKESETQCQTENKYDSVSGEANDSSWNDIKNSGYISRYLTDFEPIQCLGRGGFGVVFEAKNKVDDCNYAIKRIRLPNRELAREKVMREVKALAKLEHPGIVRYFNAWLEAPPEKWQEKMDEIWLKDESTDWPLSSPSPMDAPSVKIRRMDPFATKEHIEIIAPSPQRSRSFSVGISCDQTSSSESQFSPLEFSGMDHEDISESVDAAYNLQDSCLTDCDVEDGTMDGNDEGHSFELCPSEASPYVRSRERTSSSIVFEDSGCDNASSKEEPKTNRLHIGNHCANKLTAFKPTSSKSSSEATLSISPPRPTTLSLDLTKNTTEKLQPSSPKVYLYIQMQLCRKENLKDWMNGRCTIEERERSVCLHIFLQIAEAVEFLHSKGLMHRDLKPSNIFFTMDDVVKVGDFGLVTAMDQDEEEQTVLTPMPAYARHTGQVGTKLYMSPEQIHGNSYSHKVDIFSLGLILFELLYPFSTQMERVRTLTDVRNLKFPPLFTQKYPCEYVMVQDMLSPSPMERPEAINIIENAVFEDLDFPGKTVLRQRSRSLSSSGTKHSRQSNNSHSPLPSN
Particulars: singlicate.
Excerpt: as §1

Experiment [5] concerns the target T3, 320 wild-type protein kinases (Homo sapiens, UniProt Q8NG66).
T3 sequence (Q8NG66 1-645): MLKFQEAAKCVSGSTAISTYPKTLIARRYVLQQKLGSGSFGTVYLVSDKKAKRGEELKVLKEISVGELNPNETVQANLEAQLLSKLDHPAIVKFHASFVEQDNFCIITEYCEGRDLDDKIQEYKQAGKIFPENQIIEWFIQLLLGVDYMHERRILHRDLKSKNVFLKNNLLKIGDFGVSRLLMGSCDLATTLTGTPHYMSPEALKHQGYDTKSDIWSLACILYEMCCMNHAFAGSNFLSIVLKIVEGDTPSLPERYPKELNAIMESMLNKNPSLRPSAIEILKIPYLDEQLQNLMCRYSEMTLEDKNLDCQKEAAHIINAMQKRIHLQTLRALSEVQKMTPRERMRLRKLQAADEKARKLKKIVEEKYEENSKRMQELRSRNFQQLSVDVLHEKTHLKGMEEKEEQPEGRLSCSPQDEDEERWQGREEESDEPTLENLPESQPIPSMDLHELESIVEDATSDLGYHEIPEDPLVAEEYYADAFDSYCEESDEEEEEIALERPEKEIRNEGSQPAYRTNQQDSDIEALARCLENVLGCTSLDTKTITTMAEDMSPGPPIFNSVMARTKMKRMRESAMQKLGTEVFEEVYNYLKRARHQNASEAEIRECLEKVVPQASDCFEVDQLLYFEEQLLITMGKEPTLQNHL
Conditions: singlicate.
Excerpt: as §1

Chain of 320 wild-type protein kinases (Homo sapiens, UniProt Q13554) (Q13554 whole entry): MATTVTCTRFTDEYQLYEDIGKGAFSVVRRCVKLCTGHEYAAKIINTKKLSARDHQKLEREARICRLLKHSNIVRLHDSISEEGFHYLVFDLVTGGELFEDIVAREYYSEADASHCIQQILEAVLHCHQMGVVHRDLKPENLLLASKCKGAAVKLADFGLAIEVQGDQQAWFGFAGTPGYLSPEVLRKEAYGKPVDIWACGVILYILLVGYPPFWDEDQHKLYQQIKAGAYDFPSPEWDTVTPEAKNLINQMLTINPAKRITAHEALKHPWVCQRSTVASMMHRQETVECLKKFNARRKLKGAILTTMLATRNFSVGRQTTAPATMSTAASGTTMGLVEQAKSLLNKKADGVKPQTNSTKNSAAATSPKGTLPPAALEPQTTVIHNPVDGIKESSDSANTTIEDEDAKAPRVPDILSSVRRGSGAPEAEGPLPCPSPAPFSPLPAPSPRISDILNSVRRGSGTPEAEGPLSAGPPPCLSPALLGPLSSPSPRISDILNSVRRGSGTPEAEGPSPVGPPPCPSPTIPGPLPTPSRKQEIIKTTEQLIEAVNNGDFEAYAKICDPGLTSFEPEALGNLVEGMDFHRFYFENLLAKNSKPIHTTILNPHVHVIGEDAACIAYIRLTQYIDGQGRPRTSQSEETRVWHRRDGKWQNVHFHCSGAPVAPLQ
Chain of 320 wild-type protein kinases (Homo sapiens, UniProt Q04759) (Q04759 whole entry): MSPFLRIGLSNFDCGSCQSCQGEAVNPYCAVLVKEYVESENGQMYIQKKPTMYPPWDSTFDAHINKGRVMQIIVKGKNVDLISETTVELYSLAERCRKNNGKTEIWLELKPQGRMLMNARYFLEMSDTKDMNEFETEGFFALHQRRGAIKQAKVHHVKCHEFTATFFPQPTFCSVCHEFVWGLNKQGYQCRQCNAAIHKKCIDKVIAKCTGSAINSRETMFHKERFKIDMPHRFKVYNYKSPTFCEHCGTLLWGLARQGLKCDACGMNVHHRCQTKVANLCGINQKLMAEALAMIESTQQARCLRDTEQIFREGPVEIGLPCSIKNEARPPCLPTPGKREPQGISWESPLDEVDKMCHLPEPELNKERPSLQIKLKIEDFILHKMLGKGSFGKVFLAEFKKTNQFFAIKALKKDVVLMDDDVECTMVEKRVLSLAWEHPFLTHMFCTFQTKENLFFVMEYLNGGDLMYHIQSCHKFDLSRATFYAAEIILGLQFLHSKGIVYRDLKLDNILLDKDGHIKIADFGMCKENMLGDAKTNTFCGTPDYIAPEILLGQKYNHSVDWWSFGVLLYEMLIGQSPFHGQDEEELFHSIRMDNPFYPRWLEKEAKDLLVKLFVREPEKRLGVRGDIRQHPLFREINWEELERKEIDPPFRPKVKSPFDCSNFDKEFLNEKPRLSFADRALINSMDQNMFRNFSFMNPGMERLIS

As for `C#Cc1cc(Nc2ncnc3cc(OC)c(OC)cc23)ccc1Cl` [Compound 45], the Residual activity in experiment [1] (1.0E-06 M) is 101 % of control; in experiment [1] (1.0E-07 M) it was 109 % of control; in experiment [2] (1.0E-06 M), 103 % of control; in experiment [2] (1.0E-07 M), 81 % of control; in experiment [3] (1.0E-06 M) it was 73 % of control; in experiment [3] (1.0E-07 M), 92 % of control. For the same compound, the Residual activity in experiment [4] (EIF2AK3, 1.0E-06 M) is recorded as 82 % of control; in experiment [4] (EIF2AK3, 1.0E-07 M) it was 90 % of control; in experiment [5] (NEK11, 1.0E-06 M), 103 % of control; in experiment [5] (NEK11, 1.0E-07 M) it was 106 % of control.

Regarding `C#Cc1cc(Nc2ncnc3cc(I)ccc23)ccc1Cl` [Compound 41], the Residual activity in experiment [1] (1.0E-06 M) was 102 % of control; in experiment [1] (1.0E-07 M), 101 % of control; in experiment [2] (1.0E-06 M) it was 86 % of control; in experiment [2] (1.0E-07 M), 84 % of control; in experiment [3] (1.0E-06 M) it was 89 % of control; in experiment [3] (1.0E-07 M) it was 111 % of control. In addition, the Residual activity in experiment [4] (EIF2AK3, 1.0E-06 M) is 95 % of control; in experiment [4] (EIF2AK3, 1.0E-07 M) it was 86 % of control; in experiment [5] (NEK11, 1.0E-06 M), 95 % of control; in experiment [5] (NEK11, 1.0E-07 M), 82 % of control.

(Values after paper PMC9329436, “Optimization of the 4-anilinoquin(az)oline scaffold as epidermal growth factor receptor (EGFR) inhibitors for chordoma utilizing a toxicology profiling assay platform” (Scientific Reports, 2022).)
